Test results as given in patent US9943501B2 (KOJUN JAPAN CO., LTD., priority 2014, dated 2018).

Assays:
[1] = target: T1, human-derived PPARγ ligand-binding domain (Homo sapiens, UniProt P37231); assay: PPARγ activation test (GAL4 chimera / luciferase reporter in CV-1 cells); type: cell-based; details: for PPARγ ligand activity, ratio (%) of the activity of each synthesized product to the activity of the control substance (DMSO): control = 100
T1 construct: expressed in transfected cells; host or cells: CV-1 cells (African green monkey kidney-derived)
T1 sequence (P37231 238-503 limits assumed): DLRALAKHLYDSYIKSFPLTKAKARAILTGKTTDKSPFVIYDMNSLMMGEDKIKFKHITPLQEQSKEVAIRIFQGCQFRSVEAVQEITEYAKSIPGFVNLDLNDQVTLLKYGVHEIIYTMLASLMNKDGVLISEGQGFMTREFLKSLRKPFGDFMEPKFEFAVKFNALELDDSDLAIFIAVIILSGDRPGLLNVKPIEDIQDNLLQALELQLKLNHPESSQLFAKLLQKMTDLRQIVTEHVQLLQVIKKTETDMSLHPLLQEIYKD
Description: A measurement method for the PPAR activation test in Examples below were conducted as described below.
(1) PPARγ Activation Test
A plasmid pM-PPARγ for the expression of a chimeric protein composed of a human-derived PPARγ ligand-binding domain and a DNA-binding domain of a yeast-derived GAL4 transcription factor, and a plasmid p4×UASg-tk-luc containing a Cypridina-derived luciferase structural gene linked downstream of a GAL4 responsive sequence designed such that its expression was controlled by this chimeric protein, were prepared. Also, a Renilla-derived luciferase expression plasmid pRL-CMV having a viral expression promoter for constitutive intracellular expression was prepared as a plasmid for the correction of transfection efficiency. On the other hand, DMEM containing 10% FBS was used as a medium for CV-1 cells (African green monkey kidney-derived). The CV-1 cells were seeded at 4.5×10^5 cells over a 100-mm Petri dish and cultured in an incubator at 37° C. in a 5% CO2 environment.
(1-2) Transformation of CV-1 Cell
The CV-1 cells thus cultured for 24 hours were cotransfected with 2.0 μg of pM-PPARγ, 4.0 μg of p4×UASg-tk-luc, and 0.04 μg of pRL-CMV to transform the CV-1 cells. The transformation was carried out by the liposome method using LipofectAMINE(R) Reagent (a product of Invitrogen Corp.). After the transformation operation, the cells were cultured at 37° C. for 3.5 hours in a 5% CO2 environment.
(1-3) Addition of Test Sample
The CV-1 cells thus incubated were recovered by trypsin treatment, and […] thereof was inoculated at a concentration of 1×10^5 cells/mL to a 96-well plate. Each test sample was diluted with DMEM containing 4% FBS to adjust its concentration to twice the final concentration, and […] thereof was added to the 96-well plate mentioned above. DMSO was used as a control substance. After the addition of the test sample or the control substance (DMSO), the mixture was incubated at 37° C. for 24 hours in a 5% CO2 environment.
(1-4) Measurement of Luciferase Activity
The luciferase activity was measured using Dual-Luciferase(R) Reporter Assay System (a product of Promega K.K.). The culture solution was removed from the 96-well plate. The cells were washed with PBS(−), and moisture was removed therefrom using a paper towel. To the cells, […] of a cell lysis solution (Passive Lysis Buffer) was added, and the 96-well plate was shaken for 15 minutes. The cell extract was transferred at […] to a 96-well luminoplate. A luminescent substrate solution was added thereto at […]. The luminescence intensity based on the luciferase was measured for a measurement time set to 10 seconds using a luminometer (Micro Lumat Plus, a product of Berthold Japan Co., Ltd.).
The PPARγ-activating effect of the test sample was evaluated on the basis of a ratio (%) relative to controls. In order to correct transfection efficiency, the measured Cypridina luciferase activity value (A) was divided by the measured Renilla luciferase activity value (B) to determine a value (A/B). The average A/B value of the control group was calculated and defined as 100. The A/B value of the test sample was calculated, and the ratio (%) of this value to the average value of the controls was used as the ability of the test sample to activate PPARγ.
Their PPARγ ligand activity was measured in the same way as in Example 7 except that the incubation time after the test sample addition was set to 48 hours. The values shown in the table below and the ordinate of the drawing depict the ratio (%) of the activity of each synthesized product to the activity of the control substance (DMSO). In Table 1 and FIG. 13, these various butenolide compounds used as test samples were each indicated by the functional group of R^2 in the formula (1).

[2] = system: C57BL/6J mice fed with a high-fat diet; assay: Insulin in blood of dietary-induced obesity mouse model; type: in vivo; details: administration groups, particularly the low-dose group; 85 days; FIG. 16
Description: For each individual of the male C57BL/6J mice after a lapse of 85 days into the test of Example 9, blood was collected from the abdominal vena cava using a syringe supplemented with heparin under anesthesia with 2% isoflurane. The amount of blood collected was set to approximately 0.8 mL. The collected blood was stored under ice cooling until centrifugation. After centrifugation (conditions: 4° C., approximately 1800×g, 10 min), the upper layer was recovered to obtain plasma. The plasma was dispensed to sampling tubes and cryopreserved until measurement. The mouse adiponectin concentration contained in the mouse plasma obtained from each individual was measured using a commercially available ELISA kit, and the average adiponectin concentration of each test group was determined.
In Example 10, the amount of […] insulin contained in the mouse plasma obtained from each individual was measured using a commercially available ELISA kit, and the average insulin concentration of each test group was determined. The ordinate of the drawing depicts the insulin concentration (ng/mL) in the mouse plasma. The test group indicated by each bar of the bar graph is the same as in FIG. 15 mentioned above.

For `O=C1C=C(c2ccccc2)C(O)O1` (centres unmarked) [5H4PB, 5-hydroxy-4-phenylbutenolide], the “PPARγ ligand activity of butenolide compounds (in words)” value ([1]; Example 8, incubation 48 hours, Table 1 and FIG. 13) was “high activity in a low concentration range”, the “PPARγ ligand activity of synthesized product” value ([1]; final concentration 3.5 μM, incubation 24 hours, FIG. 12) was “high PPARγ ligand activity” and the “PPARγ ligand activity, ratio (%) of the activity of each synthesized product to the activity of the control substance (DMSO)” value (from here on “PPARγ ligand activity, ratio (%)”) ([1]; test sample concentration 0.032 μg/mL, incubation 48 hours) was 100%. The “PPARγ ligand activity, ratio (%)” value ([1]; test sample concentration 0.08 μg/mL, incubation 48 hours) was 80%, the “PPARγ ligand activity, ratio (%)” value ([1]; test sample concentration 0.16 μg/mL, incubation 48 hours) was 120% and the “PPARγ ligand activity, ratio (%)” value ([1]; test sample concentration 0.4 μg/mL, incubation 48 hours) was 120%. The “PPARγ ligand activity, ratio (%)” value ([1]; test sample concentration 0.8 μg/mL, incubation 48 hours, * = twice or more vs control, p<0.05) was 220* %, the “PPARγ ligand activity, ratio (%)” value ([1]; test sample concentration 2 μg/mL, incubation 48 hours, * = twice or more vs control, p<0.05) was 370* % and the “PPARγ ligand activity, ratio (%)” value ([1]; test sample concentration 4 μg/mL, incubation 48 hours, * = twice or more vs control, p<0.05) was 520* %. For the same compound, the “PPARγ ligand activity, ratio (%)” value ([1]; test sample concentration 10 μg/mL, incubation 48 hours, * = twice or more vs control, p<0.05) was 710* % and the “insulin concentration in mouse plasma compared with the control group” value [2] was “inhibition of a rise in insulin concentration was confirmed”.
